Experimental data reported in patent publication US20200225244A1, “COMPOSITIONS AND METHODS FOR ASSESSING PAINFUL DEMYELINATING AND NONDEMYELINATING DISEASES” (Sanford Burnham Prebys Medical Discovery Institute, priority 2017, published 2020).

Columns and labels:
female rats = conditions: single intra-neural injection into intact sciatic nerve, Liu et al. 2012; cited from earlier work
[1] = test system: gelatinolytic urinary MMPs; conditions: 20 mM EDTA; urine of CCI rats, day 0, 1 and 28
Protocol: The urine samples collected at day 0 (prior to injury) and days 1 and 28 post-CCI (n=4-6/group) were equilibrated in MMP buffer, pH 7.5 and then the protein concentrations were determined using the Bradford assay and made even by sample dilution in MMP buffer, pH 7.5. Dialyzed urine samples were analyzed by gelatin zymography. […] The urine samples collected at day 0 (CTR) and 28 post-CCI (CCI) (n=4-5/group) were equilibrated in MMP buffer, pH 7.5, and then the protein concentrations were determined using the Bradford assay. Dialyzed urine samples were co-incubated with the fluorescent Mca-PLGL-Dpa-AR-NH2 MMP substrate in the presence and the absence of GM6001, a broad-spectrum hydroxamate MMP inhibitor.
The dialyzed rat urine samples equilibrated in MMP buffer, pH 7.5, the crude nerve extracts and the MMP-9 samples isolated from sciatic nerve were analyzed by gelatin zymography in a 10% acrylamide-0.1% gelatin gel. […] Where indicated, gels were incubated in 20 mM EDTA to inactivate MMP activity.

[2] = biological target: T1, α2δ1 subunit of the voltage-gated Ca^2+ channel (Homo sapiens, UniProt P54289); conditions: animal studies; Ohashi et al. 2008; cited from earlier work
T1 construct: PD-217,014 produces visceral analgesic effects in animal studies
T1 sequence (P54289 25-1103): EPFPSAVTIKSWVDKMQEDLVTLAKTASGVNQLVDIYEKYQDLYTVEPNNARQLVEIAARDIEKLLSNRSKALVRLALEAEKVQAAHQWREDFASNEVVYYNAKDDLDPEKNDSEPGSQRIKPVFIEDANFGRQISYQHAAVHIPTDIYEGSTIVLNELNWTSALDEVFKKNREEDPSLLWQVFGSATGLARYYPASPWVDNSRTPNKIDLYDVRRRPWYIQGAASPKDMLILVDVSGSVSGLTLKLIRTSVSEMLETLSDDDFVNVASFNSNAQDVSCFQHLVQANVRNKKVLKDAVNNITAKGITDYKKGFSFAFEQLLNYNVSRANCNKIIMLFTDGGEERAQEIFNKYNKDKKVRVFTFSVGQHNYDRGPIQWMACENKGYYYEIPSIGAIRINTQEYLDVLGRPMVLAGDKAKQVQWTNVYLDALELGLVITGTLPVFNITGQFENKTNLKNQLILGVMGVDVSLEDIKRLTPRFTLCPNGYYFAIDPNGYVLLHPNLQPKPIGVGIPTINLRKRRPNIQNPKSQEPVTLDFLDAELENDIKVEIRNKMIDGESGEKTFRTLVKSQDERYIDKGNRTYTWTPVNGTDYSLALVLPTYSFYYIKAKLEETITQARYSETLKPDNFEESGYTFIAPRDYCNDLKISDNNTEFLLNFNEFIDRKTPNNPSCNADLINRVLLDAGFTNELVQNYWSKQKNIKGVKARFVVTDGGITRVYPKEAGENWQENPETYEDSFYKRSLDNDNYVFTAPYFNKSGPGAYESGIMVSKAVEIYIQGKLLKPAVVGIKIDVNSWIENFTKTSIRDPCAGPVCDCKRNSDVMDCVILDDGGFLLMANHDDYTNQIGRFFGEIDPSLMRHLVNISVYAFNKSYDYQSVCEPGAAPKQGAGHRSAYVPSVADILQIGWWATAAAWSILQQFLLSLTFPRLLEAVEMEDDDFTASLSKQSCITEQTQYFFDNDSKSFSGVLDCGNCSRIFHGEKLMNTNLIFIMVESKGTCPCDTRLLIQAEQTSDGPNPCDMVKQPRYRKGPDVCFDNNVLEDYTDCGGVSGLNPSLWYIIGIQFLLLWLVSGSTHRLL
T1 sequence (P54289 957-1103): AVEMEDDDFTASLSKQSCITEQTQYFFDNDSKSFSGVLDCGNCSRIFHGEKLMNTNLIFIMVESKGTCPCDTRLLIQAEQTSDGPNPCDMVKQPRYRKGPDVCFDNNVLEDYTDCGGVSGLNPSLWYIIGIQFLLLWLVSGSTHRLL

ENPVVHFFKNIVTPRTPPPSQ (synthetic wild-type (MBP84-104-WT)) [synthetic algesic myelin basic protein-derived peptide, region 84-104 of human MBP]
mechanical allodynia after injection (female rats): causes a robust and long-lasting mechanical allodynia

O=C(O)CN(CCN(CC(=O)O)CC(=O)O)CC(=O)O [EDTA]
effect on MMP-related gelatinolytic bands [1]: repressed all of the MMP-related gelatinolytic bands

NC[C@@]1(CC(=O)O)C[C@H]2CC[C@H]2C1 [PD-217,014]
visceral analgesic effects, potency and efficacy compared with gabapentin [2]: higher potency and efficacy than gabapentin
